According to the NIST ThermoML archive (doi:10.1016/j.jct.2010.05.002):

Experiment: molar heat capacity at constant pressure
Conditions: 101.33 kPa, Vacuum adiabatic calorimetry

CC(C)(C)c1ccc(-c2ccccc2)cc1 [4-(1,1-dimethylethyl)-1,1'-biphenyl]
Conditions | molar heat capacity at constant pressure [J/K/mol]
156.5 K, Crystal | 164.59
157.48 K, Crystal | 165.54
158.46 K, Crystal | 168.2
159.4 K, Crystal | 167.88
160.49 K, Crystal | 170.03
162.35 K, Crystal | 170.22
163.32 K, Crystal | 171.45
164.3 K, Crystal | 171.68
165.27 K, Crystal | 172.24
166.24 K, Crystal | 173.77
167.21 K, Crystal | 175.03
168.17 K, Crystal | 175.74
169.13 K, Crystal | 176.91
170.1 K, Crystal | 177.85
171.06 K, Crystal | 178.74
172.03 K, Crystal | 179.57
172.99 K, Crystal | 180.33
173.96 K, Crystal | 181.16
174.88 K, Crystal | 181.91
175.84 K, Crystal | 182.48
176.8 K, Crystal | 183.39
177.75 K, Crystal | 184.41
178.71 K, Crystal | 186.15
179.67 K, Crystal | 186.69
180.62 K, Crystal | 187.72
181.58 K, Crystal | 187.66
182.53 K, Crystal | 188.58
183.48 K, Crystal | 190.07
184.43 K, Crystal | 190.57
185.38 K, Crystal | 191.97
186.33 K, Crystal | 192.5
187.27 K, Crystal | 193.52
188.22 K, Crystal | 194.65
189.16 K, Crystal | 195.58
190.05 K, Crystal | 196.73
190.99 K, Crystal | 197.88
191.93 K, Crystal | 198.13
192.87 K, Crystal | 199.81
193.81 K, Crystal | 200.3
194.75 K, Crystal | 200.51
195.68 K, Crystal | 201.32
196.61 K, Crystal | 203.32
197.55 K, Crystal | 203.52
198.48 K, Crystal | 205.18
199.41 K, Crystal | 205.85
200.34 K, Crystal | 205.72
201.52 K, Crystal | 207.22
202.94 K, Crystal | 208.68
204.37 K, Crystal | 210.19
205.79 K, Crystal | 211.33
207.14 K, Crystal | 212.7
208.55 K, Crystal | 214.44
209.96 K, Crystal | 215.21
211.37 K, Crystal | 217.19
212.78 K, Crystal | 218.22
214.19 K, Crystal | 219.53
215.59 K, Crystal | 220.68
216.99 K, Crystal | 222.17
218.39 K, Crystal | 224.18
219.79 K, Crystal | 225.72
221.18 K, Crystal | 226.72
222.9 K, Crystal | 227.94
224.62 K, Crystal | 229.7
226 K, Crystal | 231.67
227.39 K, Crystal | 232.23
228.77 K, Crystal | 233.85
230.14 K, Crystal | 234.83
231.52 K, Crystal | 236.49
232.88 K, Crystal | 237.84
234.25 K, Crystal | 239.02
235.61 K, Crystal | 240.58
236.97 K, Crystal | 241.66
238.33 K, Crystal | 243.18
239.69 K, Crystal | 244.52
241.05 K, Crystal | 245.68
242.4 K, Crystal | 247.57
243.75 K, Crystal | 248.49
244.98 K, Crystal | 249.71
246.33 K, Crystal | 251.82
247.66 K, Crystal | 253.81
249 K, Crystal | 254.6
250.34 K, Crystal | 256.26
251.68 K, Crystal | 256.95
253.01 K, Crystal | 258.51
254.34 K, Crystal | 259.55
255.66 K, Crystal | 261.49
256.97 K, Crystal | 262.33
258.29 K, Crystal | 263.11
259.61 K, Crystal | 265.21
260.92 K, Crystal | 267.1
262.23 K, Crystal | 268.4
263.54 K, Crystal | 269.72
264.84 K, Crystal | 270.96
265.99 K, Crystal | 271.74
267.28 K, Crystal | 273.32
268.57 K, Crystal | 275.22
269.86 K, Crystal | 276.29
271.15 K, Crystal | 277.98
272.43 K, Crystal | 280.14
273.71 K, Crystal | 281.15
274.98 K, Crystal | 281.51
276.26 K, Crystal | 282.58
277.52 K, Crystal | 284.25
278.79 K, Crystal | 285.49
280.04 K, Crystal | 286.95
281.3 K, Crystal | 288.13
282.55 K, Crystal | 289.87
283.8 K, Crystal | 290.87
285.04 K, Crystal | 291.7
286.08 K, Crystal | 293.13
287.32 K, Crystal | 295.16
288.53 K, Crystal | 295.47
289.76 K, Crystal | 296.85
292.2 K, Crystal | 299.34
293.41 K, Crystal | 300.48
294.63 K, Crystal | 301.51
295.83 K, Crystal | 302.32
297.03 K, Crystal | 303.76
298.23 K, Crystal | 303.58
299.42 K, Crystal | 305.47
300.61 K, Crystal | 306.04
301.79 K, Crystal | 308.28
302.89 K, Crystal | 309.67
303.99 K, Crystal | 310.47
305.04 K, Crystal | 312.55
306.34 K, Crystal | 313.92
307.46 K, Crystal | 315.51
308.62 K, Crystal | 315.74
309.76 K, Crystal | 319.18
310.9 K, Crystal | 320.42
312.03 K, Crystal | 320.51
313.15 K, Crystal | 321.63
314.25 K, Crystal | 323.46
315.35 K, Crystal | 326.54
316.44 K, Crystal | 326.58
317.52 K, Crystal | 328.97
318.58 K, Crystal | 333.26
325.87 K, Liquid | 381
327.07 K, Liquid | 382.02
328.07 K, Liquid | 382.22
329.06 K, Liquid | 382.84
330.05 K, Liquid | 383.2
331.03 K, Liquid | 383.56
332.01 K, Liquid | 384.21
332.98 K, Liquid | 384.73
333.94 K, Liquid | 386.4
334.9 K, Liquid | 386.26
335.85 K, Liquid | 387.48
336.8 K, Liquid | 388
337.74 K, Liquid | 388.46
338.68 K, Liquid | 388.8
339.61 K, Liquid | 389.81
340.53 K, Liquid | 390.68
340.99 K, Liquid | 390.97
341.91 K, Liquid | 391.9
342.82 K, Liquid | 392.95
343.73 K, Liquid | 393.35
344.62 K, Liquid | 393.96
345.52 K, Liquid | 394.82
346.4 K, Liquid | 396.04
347.28 K, Liquid | 396.15
348.16 K, Liquid | 397.03
349.03 K, Liquid | 396.87
349.89 K, Liquid | 397.86
350.75 K, Liquid | 398.4
351.6 K, Liquid | 397.8
352.45 K, Liquid | 397.92
354.12 K, Liquid | 401.27
354.41 K, Liquid | 401.25
355.24 K, Liquid | 400.85
356.06 K, Liquid | 400.95
356.87 K, Liquid | 401.61
357.67 K, Liquid | 402.4
358.47 K, Liquid | 402.62
359.27 K, Liquid | 402.51
360.06 K, Liquid | 402.5
360.84 K, Liquid | 404.15
361.61 K, Liquid | 405.1
362.38 K, Liquid | 405.27
363.15 K, Liquid | 406.09
363.91 K, Liquid | 406.9
364.66 K, Liquid | 406.47
365.41 K, Liquid | 407.47
366.15 K, Liquid | 407.61
366.27 K, Liquid | 407.63
367.01 K, Liquid | 406.87
367.73 K, Liquid | 408.31
368.45 K, Liquid | 410.51
369.17 K, Liquid | 410.57
369.88 K, Liquid | 409.74
370.58 K, Liquid | 410.84
